Measured values published in US20250368666A1, “INDAZOLE COMPOUNDS” (TYRA BIOSCIENCES, INC., priority 2022, published 2025).

Columns and labels:
Experiment in all cases: Kinase binding assay (kinase-tagged T7 phage, affinity beads, qPCR), Kd
FGFR3 = target: T1, FGFR3 (Homo sapiens, UniProt P22607); details: read-out: FGFR3 (Kd nM)
T1 construct: made in house; host or cells: E. coli (BL21-derived), T7 phage
How it was run: (§1)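 First, phage lysates carrying tagged kinase are made in E. coli at 32° C. Next, they are combined with blocked biotin-ligand streptavidin beads and compound at 0.9% final DMSO. Finally, eluted kinase is measured by qPCR and Kd is fitted with the Hill equation.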

FGFR4 = target: T2, FGFR4 (Homo sapiens, UniProt P22455); details: read-out: FGFR4 (Kd nM)
T2 construct: made in house; host or cells: E. coli (BL21-derived), T7 phage
How it was run: as §1

FGFR2 = target: T3, FGFR2 (Homo sapiens, UniProt P21802); details: read-out: FGFR2 (Kd nM)
T3 construct: made in house; host or cells: E. coli (BL21-derived), T7 phage
How it was run: as §1

FGFR1 = target: T4, FGFR1 (Homo sapiens, UniProt P11362); details: read-out: FGFR1 (Kd nM)
T4 construct: made in house; host or cells: E. coli (BL21-derived), T7 phage
How it was run: as §1

FGFR3 (V555M) = target: T5, FGFR3 (V555M) (Homo sapiens, UniProt P22607, V555M); details: V555M mutant; read-out: FGFR3 (V555M) (Kd nM)
T5 construct: made in house; host or cells: E. coli (BL21-derived), T7 phage
How it was run: as §1

T5 sequence (P22607 23-806 V555M): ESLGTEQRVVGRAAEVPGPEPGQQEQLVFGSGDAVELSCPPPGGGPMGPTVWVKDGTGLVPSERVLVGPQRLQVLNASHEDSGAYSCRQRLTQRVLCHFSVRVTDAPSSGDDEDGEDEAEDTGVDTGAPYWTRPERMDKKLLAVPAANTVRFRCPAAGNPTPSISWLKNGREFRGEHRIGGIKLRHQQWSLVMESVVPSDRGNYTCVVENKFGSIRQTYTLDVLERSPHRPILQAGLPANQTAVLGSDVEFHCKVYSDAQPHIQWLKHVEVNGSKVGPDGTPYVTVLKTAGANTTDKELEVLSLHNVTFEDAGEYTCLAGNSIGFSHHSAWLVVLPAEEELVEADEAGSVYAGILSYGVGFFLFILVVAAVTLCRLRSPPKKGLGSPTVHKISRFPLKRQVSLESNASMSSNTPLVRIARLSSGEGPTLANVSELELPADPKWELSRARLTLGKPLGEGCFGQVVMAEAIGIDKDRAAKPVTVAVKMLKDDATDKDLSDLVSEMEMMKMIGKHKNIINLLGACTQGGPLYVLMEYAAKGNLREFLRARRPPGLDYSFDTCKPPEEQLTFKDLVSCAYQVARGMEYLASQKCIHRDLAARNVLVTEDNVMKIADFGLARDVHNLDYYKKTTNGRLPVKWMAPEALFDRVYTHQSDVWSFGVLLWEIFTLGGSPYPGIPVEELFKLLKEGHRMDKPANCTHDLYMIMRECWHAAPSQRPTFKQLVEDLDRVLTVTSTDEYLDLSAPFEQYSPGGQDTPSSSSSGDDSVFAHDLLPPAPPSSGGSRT
T2 sequence (P22455 22-802): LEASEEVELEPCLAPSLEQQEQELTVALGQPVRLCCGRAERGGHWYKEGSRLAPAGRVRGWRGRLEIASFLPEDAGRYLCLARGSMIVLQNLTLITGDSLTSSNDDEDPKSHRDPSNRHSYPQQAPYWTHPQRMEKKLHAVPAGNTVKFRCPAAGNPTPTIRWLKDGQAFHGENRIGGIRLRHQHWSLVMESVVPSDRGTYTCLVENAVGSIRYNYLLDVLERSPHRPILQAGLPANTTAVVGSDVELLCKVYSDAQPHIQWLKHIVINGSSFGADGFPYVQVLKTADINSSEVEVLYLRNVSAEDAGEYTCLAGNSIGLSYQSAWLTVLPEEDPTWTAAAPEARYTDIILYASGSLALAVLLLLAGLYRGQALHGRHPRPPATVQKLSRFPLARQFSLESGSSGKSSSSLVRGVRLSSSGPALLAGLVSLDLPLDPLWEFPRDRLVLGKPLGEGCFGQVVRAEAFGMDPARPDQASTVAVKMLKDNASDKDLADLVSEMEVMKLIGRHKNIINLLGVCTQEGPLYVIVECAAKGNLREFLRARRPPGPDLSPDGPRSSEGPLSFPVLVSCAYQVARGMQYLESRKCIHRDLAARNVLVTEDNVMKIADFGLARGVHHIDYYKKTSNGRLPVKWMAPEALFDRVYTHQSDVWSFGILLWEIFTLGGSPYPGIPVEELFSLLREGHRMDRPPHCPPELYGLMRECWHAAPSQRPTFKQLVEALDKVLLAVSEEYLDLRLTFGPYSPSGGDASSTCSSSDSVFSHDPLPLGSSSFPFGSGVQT
T1 sequence (P22607 23-806): as the sequence (P22607 23-806 V555M) above, with M533V counted along it
T4 sequence (P11362 22-822): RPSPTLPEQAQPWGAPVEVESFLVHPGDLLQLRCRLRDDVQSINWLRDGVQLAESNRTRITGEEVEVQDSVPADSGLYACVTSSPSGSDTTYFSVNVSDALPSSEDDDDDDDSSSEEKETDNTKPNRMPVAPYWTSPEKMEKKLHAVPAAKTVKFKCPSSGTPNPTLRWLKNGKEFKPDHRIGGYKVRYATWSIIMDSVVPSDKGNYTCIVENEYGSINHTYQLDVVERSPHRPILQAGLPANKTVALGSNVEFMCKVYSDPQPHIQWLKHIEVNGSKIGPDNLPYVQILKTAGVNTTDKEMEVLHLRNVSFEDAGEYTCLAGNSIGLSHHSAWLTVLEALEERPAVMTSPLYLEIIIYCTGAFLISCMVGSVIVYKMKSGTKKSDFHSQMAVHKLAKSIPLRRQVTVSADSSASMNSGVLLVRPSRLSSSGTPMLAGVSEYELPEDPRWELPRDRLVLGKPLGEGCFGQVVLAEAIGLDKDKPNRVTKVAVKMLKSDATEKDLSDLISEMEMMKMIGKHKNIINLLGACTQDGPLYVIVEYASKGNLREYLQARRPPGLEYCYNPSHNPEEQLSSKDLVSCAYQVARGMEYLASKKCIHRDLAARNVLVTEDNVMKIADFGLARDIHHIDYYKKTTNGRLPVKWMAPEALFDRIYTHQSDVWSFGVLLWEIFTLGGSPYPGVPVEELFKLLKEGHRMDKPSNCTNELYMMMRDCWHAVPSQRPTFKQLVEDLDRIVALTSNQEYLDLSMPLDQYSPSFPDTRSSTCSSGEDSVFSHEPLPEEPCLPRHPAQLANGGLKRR
T3 sequence (P21802 22-821): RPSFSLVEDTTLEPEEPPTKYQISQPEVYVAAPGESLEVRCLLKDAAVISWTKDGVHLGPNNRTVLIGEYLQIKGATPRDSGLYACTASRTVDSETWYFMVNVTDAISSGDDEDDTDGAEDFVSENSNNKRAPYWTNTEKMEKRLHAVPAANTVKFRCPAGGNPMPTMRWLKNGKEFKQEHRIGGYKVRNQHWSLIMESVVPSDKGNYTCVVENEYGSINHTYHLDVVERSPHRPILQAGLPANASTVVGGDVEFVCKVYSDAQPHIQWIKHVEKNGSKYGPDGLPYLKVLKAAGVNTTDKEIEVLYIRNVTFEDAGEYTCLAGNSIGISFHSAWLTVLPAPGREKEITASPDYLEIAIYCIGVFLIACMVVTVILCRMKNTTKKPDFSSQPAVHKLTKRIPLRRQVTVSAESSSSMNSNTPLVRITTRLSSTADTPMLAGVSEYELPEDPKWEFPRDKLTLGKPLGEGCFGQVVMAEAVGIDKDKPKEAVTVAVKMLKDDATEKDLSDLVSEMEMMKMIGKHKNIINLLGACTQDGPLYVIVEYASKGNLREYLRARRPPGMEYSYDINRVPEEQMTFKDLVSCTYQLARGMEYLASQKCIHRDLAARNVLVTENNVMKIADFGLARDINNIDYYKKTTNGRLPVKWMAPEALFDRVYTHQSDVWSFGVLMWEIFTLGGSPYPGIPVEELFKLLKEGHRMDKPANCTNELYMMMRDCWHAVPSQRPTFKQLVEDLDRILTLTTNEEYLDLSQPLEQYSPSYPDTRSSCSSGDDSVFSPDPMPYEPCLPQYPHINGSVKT

SMILES	Kd (FGFR3)	Kd (FGFR4)	Kd (FGFR2)	Kd (FGFR1)	Kd (FGFR3 (V555M))
COc1cc2[nH]nc(-c3cnc(N4CC(C)(NCCO)C4)c(F)c3)c2cc1O[C@H](C)c1c(Cl)cncc1Cl [Example 164, (R)-2-((1-(5-(5-(1-(3,5-dichloro-pyridin-4-yl)ethoxy)-6-methoxy-1H-indazol-3-yl)-3-fluoropyridin-2-yl)-3-methylazetidin-3-yl)amino)ethan-1-ol]	1 to 50 nM	1 to 50 nM	1 to 50 nM	1 to 50 nM	1 to 50 nM
C[C@@H](Oc1cc2c(-c3cnc(N4CC(C)(NCCO)C4)c(F)c3)n[nH]c2cc1F)c1c(Cl)cncc1Cl [Example 165]	1 to 50 nM	1 to 50 nM	1 to 50 nM	1 to 50 nM	1 to 50 nM
C[C@@H](O)CNC1(C)CN(c2ncc(-c3n[nH]c4ccc(O[C@H](C)c5c(Cl)cncc5Cl)c(F)c34)cc2F)C1 [Example 169, (R)-1-((1-(5-(5-((R)-1-(3,5-dichloropyridin-4-yl)ethoxy)-4-fluoro-1H-indazol-3-yl)-3-fluoropyridin-2-yl)-3-methylazetidin-3-yl)amino)propan-2-ol]	50 to 300 nM	50 to 300 nM	> 1000 nM	300 to 1000 nM	1 to 50 nM
CC(C)NC1(C)CN(c2ccc(-c3n[nH]c4ccc(O[C@H](C)c5c(Cl)cncc5Cl)c(F)c34)cn2)C1 [Example 173, (R)-1-(5-(5-(1-(3,5-dichloropyridin-4-yl)ethoxy)-4-fluoro-1H-indazol-3-yl)pyridin-2-yl)-N-isopropyl-3-methylazetidin-3-amine]	50 to 300 nM	300 to 1000 nM	300 to 1000 nM	300 to 1000 nM	1 to 50 nM
C[C@H](O)CNC1(C)CN(c2ncc(-c3n[nH]c4ccc(O[C@H](C)c5c(Cl)cncc5Cl)c(F)c34)cc2F)C1 [Example 176, (S)-1-((1-(5-(5-((R)-1-(3,5-dichloropyridin-4-yl)ethoxy)-4-fluoro-1H-indazol-3-yl)-3-fluoropyridin-2-yl)-3-methylazetidin-3-yl)amino)propan-2-ol]	50 to 300 nM	50 to 300 nM	> 1000 nM	300 to 1000 nM	50 to 300 nM
C[C@@H](Oc1ccc2[nH]nc(-c3cnc(N4CC(C)(CNCCO)C4)c(F)c3)c2c1)c1c(Cl)cncc1Cl [Example 178, (R)-2-(((1-(5-(5-(1-(3,5-dichloro-pyridin-4-yl)ethoxy)-1H-indazol-3-yl)-3-fluoropyridin-2-yl)-3-methylazetidin-3-yl)methyl)amino) ethanol]	1 to 50 nM	1 to 50 nM	1 to 50 nM	1 to 50 nM	1 to 50 nM
COc1cc2[nH]nc(-c3cnc(N4CC(C)(CP(C)(C)=O)C4)c(F)c3)c2cc1O[C@H](C)c1c(Cl)cncc1Cl [Example 179, (R)-((1-(5-(5-(1-(3,5-dichloro-pyridin-4-yl)ethoxy)-6-methoxy-1H-indazol-3-yl)-3-fluoropyridin-2-yl)-3-methylazetidin-3-yl)methyl)dimethyl-phosphine oxide]	1 to 50 nM	1 to 50 nM	1 to 50 nM	1 to 50 nM	1 to 50 nM
COc1cc2[nH]nc(-c3ccc(N4CC(C)(CP(C)(C)=O)C4)nc3)c2cc1O[C@H](C)c1c(Cl)cncc1Cl [Example 180, (R)-((1-(5-(5-(1-(3,5-dichloro-pyridin-4-yl)ethoxy)-6-meth-oxy-1H-inda-zol-3-yl)pyridin-2-yl)-3-methylazetidin-3-yl)methyl)dimethyl-phosphine oxide]	1 to 50 nM	1 to 50 nM	1 to 50 nM	1 to 50 nM	1 to 50 nM
C[C@@H](Oc1cc2c(-c3ccc(N4CC(C)(CN5CCOCC5)C4)nc3)n[nH]c2cc1F)c1c(Cl)cncc1Cl [Example 186, (R)-4-((1-(5-(5-(1-(3,5-dichloro-pyridin-4-yl)ethoxy)-6-fluoro-1H-indazol-3-yl)pyridin-2-yl)-3-methylazetidin-3-yl)methyl)morpho-line]	1 to 50 nM	1 to 50 nM	1 to 50 nM	1 to 50 nM	1 to 50 nM
C[C@@H](Oc1ccc2[nH]nc(-c3ccc(N4CC(C)(CP(C)(C)=O)C4)nc3)c2c1F)c1c(Cl)cncc1Cl [Example 187, (R)-((1-(5-(5-(1-(3,5-dichloro-pyridin-4-yl)ethoxy)-4-fluoro-1H-indazol-3-yl)pyridin-2-yl)-3-methylazetidin-3-yl)methyl)dimethyl-phosphine oxide]	50 to 300 nM	300 to 1000 nM	300 to 1000 nM	> 1000 nM	50 to 300 nM
C[C@@H](Oc1cc2c(-c3ccc(N4CC(C)(CN5CCCC5)C4)nc3)n[nH]c2cc1F)c1c(Cl)cncc1Cl [Example 188, (R)-5-(1-(3,5-dichloropyridin-4-yl)ethoxy)-6-fluoro-3-(6-(3-methyl-3-(pyrrolidin-1-ylmethyl)azetidin-1-yl)pyridin-3-yl)-1H-indazole]	1 to 50 nM	1 to 50 nM	1 to 50 nM	1 to 50 nM	1 to 50 nM
CC(C)NCC1(C)CN(c2ccc(-c3n[nH]c4cc(F)c(O[C@H](C)c5c(Cl)cncc5Cl)cc34)cn2)C1 [Example 189, (R)-N-((1-(5-(5-(1-(3,5-dichloro-pyridin-4-yl)ethoxy)-6-fluoro-1H-indazol-3-yl)pyridin-2-yl)-3-methylazetidin-3-yl)methyl)propan-2-amine]	1 to 50 nM	1 to 50 nM	1 to 50 nM	1 to 50 nM	1 to 50 nM

The remaining lines, values ahead:

Kd (FGFR3)	Kd (FGFR4)	Kd (FGFR2)	Kd (FGFR1)	Kd (FGFR3 (V555M))	SMILES
1 to 50 nM	1 to 50 nM	1 to 50 nM	1 to 50 nM	1 to 50 nM	C[C@@H](Oc1cc2c(-c3cnc(N4CC(C)(N5CCC5)C4)c(F)c3)n[nH]c2cc1F)c1c(Cl)cncc1Cl [Example 163, 3-[6-[3-(azetidin-1-yl)-3-methyl-azetidin-1-yl]-5-fluoro-3-pyridyl]-5-[(1R)-1-(3,5-dichloro-4-pyridyl)ethoxy]-6-fluoro-1H-indazole]
1 to 50 nM	50 to 300 nM	50 to 300 nM	50 to 300 nM	1 to 50 nM	C[C@@H](Oc1ccc2[nH]nc(-c3cnc(N4CC(C)(N5CCCC5)C4)c(F)c3)c2c1F)c1c(Cl)cncc1Cl [Example 168, (R)-5-(1-(3,5-dichloropyridin-4-yl)ethoxy)-4-fluoro-3-(5-fluoro-6-(3-methyl-3-(pyrrolidin-1-yl)azetidin-1-yl)pyridin-3-yl)-1H-indazole]
50 to 300 nM	50 to 300 nM	50 to 300 nM	300 to 1000 nM	1 to 50 nM	C[C@@H](Oc1ccc2[nH]nc(-c3cnc(N4CC(C)(CP(C)(C)=O)C4)c(F)c3)c2c1F)c1c(Cl)cncc1Cl [Example 172, (R)-((1-(5-(5-(1-(3,5-dichloro-pyridin-4-yl)ethoxy)-4-fluoro-1H-inda-zol-3-yl)-3-fluoropyridin-2-yl)-3-methylazetidin-3-yl)methyl)dimethyl-phosphine oxide]
50 to 300 nM	50 to 300 nM	> 1000 nM	300 to 1000 nM	50 to 300 nM	C[C@@H](Oc1ccc2[nH]nc(-c3cnc(N4CC(C)(NCC5CC5)C4)c(F)c3)c2c1F)c1c(Cl)cncc1Cl [Example 174, (R)-N-(cyclo-propylmethyl)-1-(5-(5-(1-(3,5-dichloropyridin-4-yl)ethoxy)-4-fluoro-1H-indazol-3-yl)-3-fluoropyridin-2-yl)-3-methylazetidin-3-amine]
50 to 300 nM	50 to 300 nM	> 1000 nM	> 1000 nM	50 to 300 nM	C[C@@H](Oc1ccc2[nH]nc(-c3cnc(N4CC(C)(NCCO)C4)c(F)c3)c2c1F)c1c(Cl)cncc1Cl [Example 175, (R)-2-((1-(5-(5-(1-(3,5-dichloro-pyridin-4-yl)ethoxy)-4-fluoro-1H-indazol-3-yl)-3-fluoropyridin-2-yl)-3-methylazetidin-3-yl)amino)ethan-1-ol]
1 to 50 nM	50 to 300 nM	300 to 1000 nM	50 to 300 nM	1 to 50 nM	C[C@@H](Oc1ccc2[nH]nc(-c3ccc(N4CC(C)(N5CCCC5)C4)nc3)c2c1F)c1c(Cl)cncc1Cl [Example 177, (R)-5-(1-(3,5-dichloropyridin-4-yl)ethoxy)-4-fluoro-3-(6-(3-methyl-3-(pyrrolidin-1-yl)azetidin-1-yl)pyridin-3-yl)-1H-indazole]
50 to 300 nM	50 to 300 nM	> 1000 nM	300 to 1000 nM	50 to 300 nM	C[C@@H](Oc1ccc2[nH]nc(-c3cnc(N4CC(C)(N5CCOCC5)C4)c(F)c3)c2c1F)c1c(Cl)cncc1Cl [Example 183, (R)-4-(1-(5-(5-(1-(3,5-dichloro-pyridin-4-yl)ethoxy)-4-fluoro-1H-indazol-3-yl)-3-fluoropyridin-2-yl)-3-methylazetidin-3-yl)morpholine]
1 to 50 nM	50 to 300 nM	300 to 1000 nM	300 to 1000 nM	1 to 50 nM	C[C@@H](Oc1ccc2[nH]nc(-c3cnc(N4CC(C)(N5CCC5)C4)c(F)c3)c2c1F)c1c(Cl)cncc1Cl [Example 184, (R)-5-(1-(3,5-dichloropyridin-4-yl)ethoxy)-4-fluoro-3-(5-fluoro-6-(3′-methyl-[1,3′-biazetidin]-1′-yl)pyridin-3-yl)-1H-indazole]
50 to 300 nM	50 to 300 nM	300 to 1000 nM	300 to 1000 nM	50 to 300 nM	C[C@@H](Oc1ccc2[nH]nc(-c3cnc(N4CC(C)(CN5CCCC5)C4)c(F)c3)c2c1F)c1c(Cl)cncc1Cl [Example 185, (R)-5-(1-(3,5-dichloropyridin-4-yl)ethoxy)-4-fluoro-3-(5-fluoro-6-(3-methyl-3-(pyrrolidin-1-ylmethyl)azetidin-1-yl)pyridin-3-yl)-1H-indazole]
